Results: patent US5385918A, “Aminomethylene-peptides as immunosuppressants” (Miles Inc., priority 1993, dated 1995)

Tests used:
Lewis rats = assay: Adjuvant Arthritis Model in the Rat; format: in vivo; details: for % Inhibition: inhibition of swelling in uninjected limb vs vehicle control, 10 mg/kg/dose i.p.; for ΔAnkle Diameter: uninjected hind paw, day 0 to day 16, 10 mg/kg/dose i.p. on days -1, 0, 2, 5, 7, 9, 12 and 14
Protocol: Complete Freund's adjuvant is made by supplementing extra heavy mineral oil with 10 mg/ml heat killed Mycobacterium butyricum (Difco Laboratories, Detroit, Mich.). Lewis rats (Charles Rivers, Willmington, Mass.) are given a 0.1 ml injection of adjuvant (1 mg/animal mycobacterium) subcutaneously into the right hind footpad. In the injected foot, an acute inflammatory reaction occurs which is characterized by erythema, edema and a predominantly neutrophilic cell infiltrate. This is followed by edema in the uninjected contralateral foot by days 10-12. This secondary response is accompanied by a predominantly mononuclear cell infiltrate, indicating the presence of cell-mediated immunity.
The immune response is quantitated by measuring the change in ankle diameter of the uninjected hind paw from day 0 to day 16 post sensitization. This is accomplished using a hand-held dial micrometer. Animals are administered test drugs, suspended in a vehicle consisting of 5% polyethylene glycol and 0.5% Tween-80 (Sigma Chemical Co., St. Louis, Mo.) in phosphate buffered saline (GIBCO, Grand Island, N.Y.), i.p. on days -1, 0, 2, 5, 7, 9, 12 and 14. Several compounds when administered at 10 mg/kg/dose inhibited the swelling in the uninjected limb compared with the control groups that were sensitized with Complete Freund's Adjuvant but received only the vehicle i.p. (Table 4).

FKBP = FKBP (Homo sapiens, UniProt P62942); assay: PPIase Inhibition Assay; format: biochemical; details: inhibition of PPIase activity of FKBP, substrate Succinyl-Ala-Phe-Pro-Phe-para-nitroanilide
Sequence of FKBP (P62942 whole entry): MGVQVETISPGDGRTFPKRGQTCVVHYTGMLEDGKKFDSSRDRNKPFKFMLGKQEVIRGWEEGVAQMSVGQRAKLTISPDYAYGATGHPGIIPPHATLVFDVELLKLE
Protocol: This assay follows in principle the procedure described in Kofron et al., 1991, Biochemistry 30:6127. The three main reagents used are PPIase, a substrate for PPIase, and a selected inhibitor compound of the present invention. The basic principle behind this assay is the conversion of the cis isomer of the substrate to the trans form, which conversion is catalyzed by PPIase. Essentially, inhibition of this PPIase activity is measured for the selected compounds. A peptide chymotrypsin substrate containing a proline in the P2 position is only cleaved by chymotrypsin when the Phe-Pro bond is in the trans isomeric configuration. In the presence of excess chymotrypsin, all of the trans peptide isomers are cleaved within approximately five seconds, leaving only cis forms.
The cis peptide will spontaneously convert to the trans isomer at a slow rate. The cis to trans conversion is catalyzed by isomerases at a much faster rate than this spontaneous conversion. Proteins with PPIase activity are examples of such isomerases. After isomerization, the peptide is cleaved by chymotrypsin releasing p-nitroaniline which can be monitored at 390 nm. The rate of release is then calculated using a first order rate plus offset equation utilizing the ENZFITTER program (Leatherbarrow, BIOSOFT, Cambridge, United Kingdom).
In a plastic cuvette are added 950 ul of ice cold assay buffer (25 mM HEPES, pH 7.8, 100 mM NaCl), 10 uL of FKBP (2.5 uM in 10 mM Tris-Cl pH 7.5, 100 mM NaCl, 1 mM dithiothreitol), 25 ul of chymotrypsin (50 mg/ml in 1 mM HCl) and 10 ul of the test compound at various concentrations in dimethyl sulphoxide. The reaction is initiated by addition of 5 ul of substrate (Succinyl-Ala-Phe-Pro-Phe-para-nitroanilide, 5 mg/ml in 235 mM LiCl in trifluoroethanol).
The absorbance at 390 nm versus time is monitored for 90 sec using a Beckman DU70 spectrophotometer. The absorbance versus time data files are transferred to an IBM XT computer and the rate constants determined using the commercial Enzfitter program. For each set of data, the uncatalyzed rate of conversion is measured and the uninhibited enzymatic rate determined. The data are expressed as % Inhibition and are calculated as follows: [formula] where kobs is the rate in the presence of a selected test compound, kuncat is the rate in the absence of enzyme, and kuninh is the rate in the presence of enzyme and absence of inhibitor. Data are plotted as percent inhibition versus concentration of inhibitor. The values of the concentration of inhibitor required for 50% inhibition of enzyme activity (IC50) were determined by nonlinear least squares regression analysis.

Structure (SMILES)	IC50 (FKBP)	% Inhibition (Lewis rats)	ΔAnkle Diameter (Lewis rats)
CCC(C)[C@@H](CN1CCC[C@H]1C(=O)N[C@H](C(=O)NCc1ccccc1)[C@@H](C)CC)NC(=O)[C@H](CC1CCCCC1)NC(=O)OC(C)(C)C (stereo partly drawn) [Example 7, 1-[1-[2-(S)-[[2-(S)-[[(1,1-Dimethylethoxy)carbonyl]amino]-1-oxo-3-cyclohexylpropyl]amino]-3-methylpentyl]-L-proline]-L-isoleucine Benzylamide]	130 nM	–	–
CC[C@H](C)[C@H](NC(=O)[C@@H]1CCCCN1C[C@@H](NC(=O)OC(C)(C)C)[C@@H](C)CC)C(=O)NCc1ccccc1 [Example 3, 1-[1-[2-(S)-[[(1,1-Dimethylethoxy)carbonyl]amino]-3-(S)-methylpentyl]-L-homoproline]-L-isoleucine Benzylamide]	5000 nM	30%	2.6 ± 0.4 mm
CC[C@H](C)[C@H](NC(=O)[C@@H]1CCCN1C[C@@H](NC(=O)OC(C)(C)C)[C@@H](C)CC)C(=O)NCc1ccccc1 [Example 6]	390 nM	4%	3.2 ± 0.3 mm
CC[C@H](C)[C@H](NC(=O)[C@@H]1CCCN1C[C@H](CC(C)C)NC(=O)OC(C)(C)C)C(=O)NCc1ccccc1 [Example 2, 1-[1-[2-(S)-[[(1,1-Dimethylethoxy)carbonyl]amino]-4-methylpentyl]-L-proline]-L-isoleucine Benzylamide]	570 nM	–	–

Now from value to compound, other results behind:

IC50 (FKBP)	Structure (SMILES)	% Inhibition (Lewis rats)	ΔAnkle Diameter (Lewis rats)
5000 nM	CC[C@H](C)[C@@H](CN1CCCC[C@H]1C(=O)N[C@H](C(=O)NCc1ccccc1)[C@@H](C)OCc1ccccc1)NC(=O)OC(C)(C)C [Example 19, 1-[1-[2-(S)-[[(1,1-Dimethylethoxy)carbonyl]amino]-3-(S)-methylpentyl]-L-homoproline]-L-threonene(O-Benzyl Ether)Benzylamide]	43%	2.1 ± 0.6 mm
1300 nM	CC[C@H](C)[C@H](NC(=O)[C@@H]1CCCCN1C[C@H](CC(C)C)NC(=O)OC(C)(C)C)C(=O)NCc1ccccc1 [Example 18, 1-[1-[2-(S)-[[(1,1-Dimethylethoxy)carbonyl]amino]-4-methylpentyl]-L-homoproline]-L-isoleucine Benzylamide]	–	–
> 5000 nM	CC[C@H](C)[C@H](NC(=O)[C@@H]1CCCN1C[C@H](CC1CCCCC1)NC(=O)OC(C)(C)C)C(=O)NCc1ccccc1 [Example 16, 1-[1-[2-(S)-[[(1,1-dimethylethoxy)carbonyl]amino]-3-cyclohexylpropyl]-L-proline]-L-isoleucine Benzylamide]	–	–
< 50000 nM	CC[C@H](C)[C@H](NC(=O)[C@@H]1CCCN1C[C@H](CC(C)C)NC(=O)[C@H](CC(N)=O)NC(=O)[C@H](Cc1ccccc1)NC(=O)OC(C)(C)C)C(=O)OCc1ccccc1 [Example 14, 1-[1-[2-(S)-[[1-[1-[(1,1-Dimethylethoxy)carbonyl]-L-phenylalanyl]-L-asparaginyl]amino]-4-methylpentyl]-L-proline]-L-isoleucine Phenylmethyl Ester]	–	–
160 nM	CCC(C)[C@@H](CN1CCC[C@H]1C(=O)N[C@H](C(=O)NCc1ccccc1)[C@@H](C)CC)NC(=O)[C@@H](N)CC1CCCCC1 (stereo partly shown) [Example 8]	–	–
470 nM	CC[C@H](C)[C@H](NC(=O)[C@@H]1CCCN1C[C@@H](NC(=O)OC(C)(C)C)C(C)C)C(=O)NCc1ccccc1 [Example 17, 1-[1-[2-(S)-[[(1,1-dimethylethoxy)carbonyl]amino]-3-methylbutyl]-L-proline] -L-isoleucine Benzylamide]	–	–
